Measurements as given in patent publication US9695155B2, “Herbicidal substituted pyrimidinyloxy benzene compounds” (E. I. DU PONT DE NEMOURS AND COMPANY, priority 2013, dated 2017).

Tests used:
[1] = test system: sandbur; assay: Test E postemergence; type: in vivo, Cenchrus echinatus; details: Cenchrus echinatus, post-emergence, read-out: Plant response rating, Sandbur
Description: (§1) Seeds of plant species selected from corn (Zea mays), soybean (Glycine max), velvetleaf (Abutilon theophrasti), lambsquarters (Chenopodium album), wild poinsettia (Euphorbia heterophylla), palmer pigweed (Amaranthus palmeri), waterhemp (common waterhemp, Amaranthus rudis), surinam grass (Brachiaria decumbens), large (Lg) crabgrass (Digitaria sanguinalis), Brazilian crabgrass (Digitaria horizontalis), fall panicum (Panicum dichotomiflorum), giant foxtail (Setaria faberii), green foxtail (Setaria viridis), goosegrass (Eleusine indica), johnsongrass (Sorghum halepense), ragweed (common ragweed, Ambrosia elatior), barnyardgrass (Echinochloa crus-galli), sandbur (southern sandbur, Cenchrus echinatus), arrowleaf sida (Sida rhombifolia), Italian ryegrass (Lolium multiflorum), dayflower (Virginia (VA) dayflower, Commelina virginica), field bindweed (Convolvulus arvensis), morningglory (Ipomoea coccinea), nightshade (eastern black nightshade, Solanum ptycanthum), kochia (Kochia scoparia), yellow nutsedge (Cyperus esculentus), cocklebur (common cocklebur, Xanthium strumarium), smartweed (ladysthumb smartweed, and hairy beggarticks (Bidens pilosa), were planted into a silt loam soil and treated preemergence with test chemicals formulated in a non-phytotoxic solvent mixture which included a surfactant.
(§2) At the same time, plants from these crop and weed species and also horseweed (Canada horseweed, Conyza canadensis), waterhemp_RES1, (ALS & Triazine resistant common waterhemp, Amaranthus rudis), and waterhemp_RES2, (ALS & HPPD resistant common waterhemp, Amaranthus rudis) were planted in pots containing Redi-Earth® planting medium (Scotts Company, 14111 Scottslawn Road, Marysville, Ohio 43041) comprising spaghnum peat moss, vermiculite, wetting agent and starter nutrients were treated with postemergence applications of test chemicals formulated in the same manner. Plants ranged in height from 2 to 18 cm for postemergence treatments (1- to 4-leaf stage). Treated plants and controls were maintained in a greenhouse for 14 to 21 days, after which time all species were compared to controls and visually evaluated. Plant response ratings, summarized in Table E, are based on a scale of 0 to 100 where 0 is no effect and 100 is complete control. A dash (-) response means no test result.

[2] = test system: windgrass; assay: Test D preemergence; type: in vivo, Apera spica-venti; details: Apera spica-venti, pre-emergence
In short: (§3)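 Visual rating vs untreated controls, 0 = no effect, 100 = complete control, taken 7–21 d after treatment. Pre: silt loam soil. Post: potting medium, plants 2–18 cm, 1–4 leaf. Formulation: non-phytotoxic solvent mix + surfactant.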

[3] = test system: wild poinsettia; assay: Test E postemergence; type: in vivo, Euphorbia heterophylla; details: Euphorbia heterophylla, post-emergence, read-out: Plant response rating, Poinsettia, Wild
Description: as §1, §2

[4] = test system: pigweed; assay: Test D preemergence; type: in vivo, Amaranthus retroflexus; details: Amaranthus retroflexus, pre-emergence
In short: as §3

[5] = test system: Italian ryegrass; assay: Test D preemergence; type: in vivo, Lolium multiflorum; details: Lolium multiflorum, pre-emergence
In short: as §3

[6] = test system: spring barley; assay: Test D preemergence; type: in vivo, Hordeum vulgare; details: Hordeum vulgare, pre-emergence
In short: as §3

[7] = test system: lambsquarters; assay: Test D preemergence; type: in vivo, Chenopodium album; details: Chenopodium album, pre-emergence
In short: as §3

[8] = test system: wild oat; assay: Test D postemergence; type: in vivo, Avena fatua; details: Avena fatua, post-emergence
In short: as §3

[9] = test system: blackgrass; assay: Test D postemergence; type: in vivo, Alopecurus myosuroides; details: Alopecurus myosuroides, post-emergence, Postemergence, scale 0 to 100 (0 no effect, 100 complete control), read-out: Plant response rating, Blackgrass
In short: as §3

[10] = test system: chamomile; assay: Test D preemergence; type: in vivo, Matricaria inodora; details: Tripleurospermum inodorum, pre-emergence
In short: as §3

[11] = test system: barnyardgrass; assay: Test E postemergence; type: in vivo, Echinochloa crus-galli; details: Echinochloa crus-galli, post-emergence, read-out: Plant response rating, Barnyardgrass
Description: as §1, §2

[12] = test system: bromegrass, downy; assay: Test D preemergence; type: in vivo, Bromus tectorum; details: Bromus tectorum, pre-emergence
In short: as §3

[13] = test system: field poppy; assay: Test D preemergence; type: in vivo, Papaver rhoeas; details: Papaver rhoeas, pre-emergence
In short: as §3

[14] = Postemergence, 31 g ai/ha, scale 0 to 100
[15] = Postemergence, 62 g ai/ha, scale 0 to 100
[16] = Postemergence, 125 g ai/ha, scale 0 to 100
[17] = postemergence, 8 g ai/ha, scale 0 to 100, 0 no effect, 100 complete control
[18] = postemergence, 16 g ai/ha, scale 0 to 100, 0 no effect, 100 complete control

## Clc1cnc(Oc2ccccc2-n2cc(Br)cn2)nc1 [Compound 7, 2-[2-(4-bromo-1H-pyrazol-1-yl)phenoxy]-5-chloropyrimidine]
[1]; [14]
  pest or weed control at 31 g/ha: 0%
[1]; [15]
  pest or weed control at 62 g/ha: 0%
[1]; [16]
  pest or weed control at 125 g/ha: 0%
[1]; [17]
  pest or weed control at 8 g/ha: 0%
[1]; [18]
  pest or weed control at 16 g/ha: 0%
[2]; 16 g ai/ha, scale 0 (no effect) to 100 (complete control), read-out: Plant response rating, Windgrass
  pest or weed control at 16 g/ha: 0%
[2]; 31 g ai/ha, scale 0 (no effect) to 100 (complete control), read-out: Plant response rating, Windgrass
  pest or weed control at 31 g/ha: 0%
[2]; 62 g ai/ha, scale 0-100, read-out: Plant response rating, Windgrass
  pest or weed control at 62 g/ha: 0%
[2]; 125 g ai/ha, scale 0-100, read-out: Plant response rating, Windgrass
  pest or weed control at 125 g/ha: 0%
[2]; 250 g ai/ha, scale 0-100, read-out: Plant response rating, Windgrass
  pest or weed control at 250 g/ha: 30%
[3]; [14]
  pest or weed control at 31 g/ha: 30%
[3]; [15]
  pest or weed control at 62 g/ha: 60%
[3]; [16]
  pest or weed control at 125 g/ha: 60%
[3]; [17]
  pest or weed control at 8 g/ha: 0%
[3]; [18]
  pest or weed control at 16 g/ha: 30%
[4]; 16 g ai/ha, scale 0 (no effect) to 100 (complete control), read-out: Plant response rating, Pigweed
  pest or weed control at 16 g/ha: 0%
[4]; 31 g ai/ha, scale 0 (no effect) to 100 (complete control), read-out: Plant response rating, Pigweed
  pest or weed control at 31 g/ha: 30%
[4]; 62 g ai/ha, scale 0-100, read-out: Plant response rating, Pigweed
  pest or weed control at 62 g/ha: 90%
[4]; 125 g ai/ha, scale 0-100, read-out: Plant response rating, Pigweed
  pest or weed control at 125 g/ha: 90%
[4]; 250 g ai/ha, scale 0-100, read-out: Plant response rating, Pigweed
  pest or weed control at 250 g/ha: 90%
[5]; 16 g ai/ha, scale 0 (no effect) to 100 (complete control), read-out: Plant response rating, Ryegrass, Italian
  pest or weed control at 16 g/ha: 0%
[5]; 31 g ai/ha, scale 0 (no effect) to 100 (complete control), read-out: Plant response rating, Ryegrass, Italian
  pest or weed control at 31 g/ha: 0%
[5]; 62 g ai/ha, scale 0-100, read-out: Plant response rating, Ryegrass, Italian
  pest or weed control at 62 g/ha: 0%
[5]; 125 g ai/ha, scale 0-100, read-out: Plant response rating, Ryegrass, Italian
  pest or weed control at 125 g/ha: 0%
[5]; 250 g ai/ha, scale 0-100, read-out: Plant response rating, Ryegrass, Italian
  pest or weed control at 250 g/ha: 5%
[6]; 16 g ai/ha, scale 0 (no effect) to 100 (complete control), read-out: Plant response rating, Barley, Spring
  plant injury at 16 g/ha: 0%
[6]; 31 g ai/ha, scale 0-100, read-out: Plant response rating, Barley, Spring
  plant injury at 31 g/ha: 0%
[6]; 62 g ai/ha, scale 0-100, read-out: Plant response rating, Barley, Spring
  plant injury at 62 g/ha: 0%
[6]; 125 g ai/ha, scale 0-100, read-out: Plant response rating, Barley, Spring
  plant injury at 125 g/ha: 0%
[6]; 250 g ai/ha, scale 0-100, read-out: Plant response rating, Barley, Spring
  plant injury at 250 g/ha: 0%
[7]; 16 g ai/ha, scale 0 (no effect) to 100 (complete control), read-out: Plant response rating, Lambsquarters
  pest or weed control at 16 g/ha: 0%
[7]; 31 g ai/ha, scale 0-100, read-out: Plant response rating, Lambsquarters
  pest or weed control at 31 g/ha: 0%
[7]; 62 g ai/ha, scale 0-100, read-out: Plant response rating, Lambsquarters
  pest or weed control at 62 g/ha: 30%
[7]; 125 g ai/ha, scale 0-100, read-out: Plant response rating, Lambsquarters
  pest or weed control at 125 g/ha: 40%
[7]; 250 g ai/ha, scale 0-100, read-out: Plant response rating, Lambsquarters
  pest or weed control at 250 g/ha: 60%
[8]; 16 g ai/ha, scale 0-100, read-out: Plant response rating, Oat, Wild
  pest or weed control at 16 g/ha: 0%
[8]; 31 g ai/ha, scale 0 to 100 (0 no effect, 100 complete control), read-out: Plant response rating, Oat, Wild
  pest or weed control at 31 g/ha: 0%
[8]; 62 g ai/ha, scale 0 to 100 (0 no effect, 100 complete control), read-out: Plant response rating, Oat, Wild
  pest or weed control at 62 g/ha: 0%
[8]; 125 g ai/ha, scale 0 to 100 (0 no effect, 100 complete control), read-out: Plant response rating, Oat, Wild
  pest or weed control at 125 g/ha: 10%
[8]; 250 g ai/ha, scale 0 to 100 (0 no effect, 100 complete control), read-out: Plant response rating, Oat, Wild
  pest or weed control at 250 g/ha: 25%
[9]; 62 g ai/ha
  pest or weed control at 62 g/ha: 5%
[9]; 16 g ai/ha
  pest or weed control at 16 g/ha: 0%
[9]; 31 g ai/ha
  pest or weed control at 31 g/ha: 5%
[9]; 125 g ai/ha
  pest or weed control at 125 g/ha: 10%
[9]; 250 g ai/ha
  pest or weed control at 250 g/ha: 25%
[10]; 16 g ai/ha, scale 0 (no effect) to 100 (complete control), read-out: Plant response rating, Chamomile
  pest or weed control at 16 g/ha: 0%
[10]; 31 g ai/ha, scale 0-100, read-out: Plant response rating, Chamomile
  pest or weed control at 31 g/ha: 0%
[10]; 62 g ai/ha, scale 0-100, read-out: Plant response rating, Chamomile
  pest or weed control at 62 g/ha: 0%
[10]; 125 g ai/ha, scale 0-100, read-out: Plant response rating, Chamomile
  pest or weed control at 125 g/ha: 20%
[10]; 250 g ai/ha, scale 0-100, read-out: Plant response rating, Chamomile
  pest or weed control at 250 g/ha: 25%
[11]; [14]
  pest or weed control at 31 g/ha: 0%
[11]; [15]
  pest or weed control at 62 g/ha: 10%
[11]; [16]
  pest or weed control at 125 g/ha: 10%
[11]; [17]
  pest or weed control at 8 g/ha: 0%
[11]; [18]
  pest or weed control at 16 g/ha: 0%
[12]; 16 g ai/ha, scale 0 (no effect) to 100 (complete control), read-out: Plant response rating, Bromegrass, Downy
  pest or weed control at 16 g/ha: 0%
[12]; 31 g ai/ha, scale 0-100, read-out: Plant response rating, Bromegrass, Downy
  pest or weed control at 31 g/ha: 0%
[12]; 62 g ai/ha, scale 0-100, read-out: Plant response rating, Bromegrass, Downy
  pest or weed control at 62 g/ha: 0%
[12]; 125 g ai/ha, scale 0-100, read-out: Plant response rating, Bromegrass, Downy
  pest or weed control at 125 g/ha: 0%
[12]; 250 g ai/ha, scale 0-100, read-out: Plant response rating, Bromegrass, Downy
  pest or weed control at 250 g/ha: 0%
[13]; 16 g ai/ha, scale 0 (no effect) to 100 (complete control), read-out: Plant response rating, Field Poppy
  pest or weed control at 16 g/ha: 0%
[13]; 31 g ai/ha, scale 0-100, read-out: Plant response rating, Field Poppy
  pest or weed control at 31 g/ha: 0%
[13]; 62 g ai/ha, scale 0-100, read-out: Plant response rating, Field Poppy
  pest or weed control at 62 g/ha: 30%
[13]; 125 g ai/ha, scale 0-100, read-out: Plant response rating, Field Poppy
  pest or weed control at 125 g/ha: 60%
[13]; 250 g ai/ha, scale 0-100, read-out: Plant response rating, Field Poppy
  pest or weed control at 250 g/ha: 100%
